The source of these data is publication PMC4610306 (Journal of Medicinal Chemistry, 2015).

“Also recorded” adds a separate entry of the source.

For one data set, the target named is PAD2 (Homo sapiens, UniProt Q9Y2J8). Kind of data set: Inactivation kinetics. The format is biochemical.
Data set [1] can be described thus: Murine hepatic microsome stability assay. The class given is in vitro ADME, mouse.
The subject of another data set is mouse neutrophils. The data set is described as follows: NET formation, PMA-stimulated neutrophils, DNA/neutrophil elastase overlap assay. The settings on record: Cl-amidine as reference. The format is cell-based.
Another data set has as its system U2OS cells. Kind of data set: Cell viability, colorimetric XTT assay. The format is cell-based, human.

Sequence of PAD2 (Q9Y2J8 whole entry): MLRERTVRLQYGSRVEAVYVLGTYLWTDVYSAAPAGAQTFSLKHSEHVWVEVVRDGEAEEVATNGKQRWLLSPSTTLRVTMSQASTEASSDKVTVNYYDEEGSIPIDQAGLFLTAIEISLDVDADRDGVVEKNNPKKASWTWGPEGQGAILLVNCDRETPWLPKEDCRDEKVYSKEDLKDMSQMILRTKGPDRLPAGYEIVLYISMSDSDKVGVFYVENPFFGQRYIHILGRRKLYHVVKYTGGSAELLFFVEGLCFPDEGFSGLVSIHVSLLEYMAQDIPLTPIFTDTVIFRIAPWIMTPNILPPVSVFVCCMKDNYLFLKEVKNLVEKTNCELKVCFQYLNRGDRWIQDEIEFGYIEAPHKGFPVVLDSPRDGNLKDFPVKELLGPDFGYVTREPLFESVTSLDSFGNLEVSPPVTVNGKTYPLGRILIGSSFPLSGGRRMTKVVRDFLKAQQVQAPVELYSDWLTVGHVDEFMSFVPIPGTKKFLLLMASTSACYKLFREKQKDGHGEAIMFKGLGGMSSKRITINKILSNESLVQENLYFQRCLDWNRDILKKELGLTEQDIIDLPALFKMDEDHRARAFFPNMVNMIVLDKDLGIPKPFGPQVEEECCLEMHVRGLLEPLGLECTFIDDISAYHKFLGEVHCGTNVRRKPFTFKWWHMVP

In the case of `CC(C)(C)n1nnc([C@H](CCCNC(=N)CF)NC(=O)c2ccccc2)n1` [Compound 7, tetrazole tert-butyl-F-amidine], the inactivation efficiency (kinact/KI) (in general, the maximal inactivation rate divided by the concentration that gives half of it) at PAD2 was 108 M⁻¹ s⁻¹. For the compound `CC(C)(C)n1nnc([C@H](CCCNC(=N)CCl)NC(=O)c2ccccc2C(=O)O)n1` [Compound 21, o-carboxyl tetrazole tert-butyl Cl-amidine], the “stability / half-life in mouse hepatic microsomes” value in data set [1] is on record as “half-life mimics those obtained for the fluoro analogs”. The “inhibition of NET formation” value in the data set with mouse neutrophils is on record as “inhibits NET formation only at very high concentrations; also recorded: inhibits NET formation at higher doses”. Consider `CC(C)(C)n1nnc([C@H](CCCNC(=N)CF)NC(=O)c2ccc(-c3ccccc3)cc2)n1` [Compound 14, biphenyl tetrazole tert-butyl-F-amidine], for which the “EC50 improvement over parent compound Cl-amidine” value in the data set on U2OS cells amounted to 3.5 fold. As to `CC(C)(C)n1nnc([C@H](CCCNC(=N)CCl)NC(=O)c2ccc(-c3ccccc3)cc2)n1` [Compound 13, biphenyl tetrazole tert-butyl Cl-amidine], the “EC50 improvement over parent compound Cl-amidine” value in the data set on U2OS cells was 16 fold. Further, the “effect on cell growth / cell viability” value in the data set with U2OS cells (20 μM, 72 h, XTT) is reported as “completely abolished cell growth; also recorded: completely abolishes the growth”. Moreover, in the data set on mouse neutrophils, the “inhibition of NET formation” value is “significantly more potent than Cl-amidine; also recorded: significantly reduces NET formation compared to Cl-amidine”.

As for `CC(C)(C)n1nnc([C@H](CCCNC(=N)CCl)NC(=O)c2ccccc2)n1` [Compound 6, tetrazole tert-butyl Cl-amidine], the kinact/KI on PAD2 is 125 M⁻¹ s⁻¹. Consider `N=C(CF)NCCC[C@H](NC(=O)c1ccccc1)C(N)=O` [F-amidine, reference compound], for which, on PAD2, the kinact/KI was 6.33 M⁻¹ s⁻¹.
